Source: PMC10384982, “Investigation of Novel Benzoxazole-Oxadiazole Derivatives as Effective Anti-Alzheimer’s Agents: In Vitro and In Silico Approaches” (Pharmaceuticals, 2023)
Read-outs that look alike come from different tables or passages of the source.

Target: T1, butyrylcholinesterase (BuChE) (Equus caballus, UniProt P81908)
T1 construct: butyrylcholinesterase (E.C. 3.1.1.8) from equine serum; purchased Sigma–Aldrich (Steinheim, Germany); host or cells: equine serum
Experiment: biochemical
Method: Acetylcholinesterase (E.C.3.1.1.7) (Type VI-S from electric eel and recombinant human enzyme) and butyrylcholinesterase (E.C. 3.1.1.8) from equine serum were purchased from Sigma–Aldrich (Steinheim, Germany). All of the materials used in the synthesis were purchased from Merck or Sigma–Aldrich (St. Louis, MO, USA) (Darmstadt, Germany). The ^1H NMR and ^13C NMR spectra in DMSO-d6 were recorded using a Bruker operating at 600 and 150 MHz digital FT-NMR spectrometer (Billerica, MA, USA, Bioscience, Bruker). The NMR spectra’s splitting patterns were recognized and categorized as doublet (d), singlet (s), double doublet (dd), multiplet (m) and triplet (t). In hertz, the coupling constants (J) are given (Hz). Mass spectra were captured on a Shimadzu LCMS-IT-TOF system (Kyoto, Japan) using the electrospray ionization (ESI) method. Using thin-layer chromatography and silica gel 60 F254 to test the purity of synthesized compounds (Darmstadt, Germany, Merck, KGaA).
The inhibition of AChE and BChE was determined using a method described earlier. Briefly, the stock solutions (1 mg/mL) of test analogues were prepared using DMSO. The working solutions (1–100 µg/mL) were prepared using serial dilutions (a serial dilution means a series of diluted solutions, e.g., 0.1 mg/mL, 0.2 mg/mL and so on; the solutions contained 5% DMSO and 95% water). The various concentrations of test compounds (10 µL) were pre-incubated with sodium phosphate buffer (0.1 M; pH 8.0; 150 µL) and AChE (0.1 U/mL; 20 µL) for 15 min at 25 °C. The reaction was initiated via the addition of DTNB (1 mM; 10 µL) and […] (1 mM; 10 µL). The mixture of reaction was mixed using a cyclomixer and incubated for 10 min at 25 °C. The absorbance was measured using a microplate reader at a 410 nm wavelength against the blank reading containing 10 µL DMSO instead of the test compound (the solution contained 5% DMSO and 95% water).

[1] = read-out: BuChE Inhibition IC50 ± SEM

T1 sequence (P81908 whole entry): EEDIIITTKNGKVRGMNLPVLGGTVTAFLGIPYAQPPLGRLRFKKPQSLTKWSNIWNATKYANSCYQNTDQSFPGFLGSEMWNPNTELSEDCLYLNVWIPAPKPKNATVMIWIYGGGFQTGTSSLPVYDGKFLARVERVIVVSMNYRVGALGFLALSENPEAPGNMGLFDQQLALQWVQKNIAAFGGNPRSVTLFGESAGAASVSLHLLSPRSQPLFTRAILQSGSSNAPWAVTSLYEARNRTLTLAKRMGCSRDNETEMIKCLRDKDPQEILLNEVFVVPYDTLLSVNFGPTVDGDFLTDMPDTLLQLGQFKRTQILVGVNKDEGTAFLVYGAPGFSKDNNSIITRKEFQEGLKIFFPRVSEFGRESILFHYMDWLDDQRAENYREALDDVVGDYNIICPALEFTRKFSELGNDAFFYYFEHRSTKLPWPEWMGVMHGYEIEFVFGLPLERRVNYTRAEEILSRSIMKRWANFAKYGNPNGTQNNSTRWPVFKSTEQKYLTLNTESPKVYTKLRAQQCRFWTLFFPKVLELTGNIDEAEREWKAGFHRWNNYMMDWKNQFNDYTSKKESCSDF

Row | Structure (SMILES) | IC50 [µM] | IC50 [1] [µM]
1 | O=[N+]([O-])c1ccc(-c2nnc(/N=C(/CSc3nc4ccccc4o3)c3cccc([N+](=O)[O-])c3)o2)cc1 [Compound 1, (E)-2-(Benzo[d]oxazol-2-ylthio)-1-(3-nitrophenyl)-N-(5-(4-nitrophenyl)-1,3,4-oxadiazol-2-yl)ethan-1-imine] | 8.9 ± 1.8 | 
2 | O=[N+]([O-])c1cccc(/C(CSc2nc3ccccc3o2)=N\c2nnc(-c3cccc([N+](=O)[O-])c3)o2)c1 [Compound 2, (E)-2-(Benzo[d]oxazol-2-ylthio)-1-(3-nitrophenyl)-N-(5-(3-nitrophenyl)-1,3,4-oxadiazol-2-yl)ethan-1-imine] | 7.5 ± 1.2 | 
3 | O=[N+]([O-])c1cccc(/C(CSc2nc3ccccc3o2)=N\c2nnc(-c3ccc(Cl)cc3Cl)o2)c1 [Compound 3, (E)-2-(Benzo[d]oxazol-2-ylthio)-N-(5-(2,4-dichlorophenyl)-1,3,4-oxadiazol-2-yl)-1-(3-nitrophenyl)ethan-1-imine] |  | 9.2 ± 1.9
4 | O=[N+]([O-])c1cccc(/C(CSc2nc3ccccc3o2)=N\c2nnc(-c3ccc(Cl)cc3)o2)c1 [Compound 4, (E)-2-(Benzo[d]oxazol-2-ylthio)-N-(5-(4-chlorophenyl)-1,3,4-oxadiazol-2-yl)-1-(3-nitrophenyl)ethan-1-imine] |  | 11.9 ± 1.1
5 | CN(C)c1ccc(-c2nnc(/N=C(/CSc3nc4ccccc4o3)c3cccc([N+](=O)[O-])c3)o2)cc1 [Compound 5, (E)-4-(5-((2-(Benzo[d]oxazol-2-ylthio)-1-(3-nitrophenyl)ethylidene)amino)-1,3,4-oxadiazol-2-yl)-N,N-dimethylaniline] |  | 16.6 ± 2.5
6 | Cc1ccc(/C(CSc2nc3ccccc3o2)=N\c2nnc(-c3ccc(OCc4ccccc4)cc3)o2)cc1 [Compound 6, (E)-2-(Benzo[d]oxazol-2-ylthio)-N-(5-(4-(benzyloxy)phenyl)-1,3,4-oxadiazol-2-yl)-1-(p-tolyl)ethan-1-imine] |  | 28.6 ± 3.8
7 | Cc1ccc(/C(CSc2nc3ccccc3o2)=N\c2nnc(-c3cccc([N+](=O)[O-])c3)o2)cc1 [Compound 7, (E)-2-(Benzo[d]oxazol-2-ylthio)-N-(5-(3-nitrophenyl)-1,3,4-oxadiazol-2-yl)-1-(p-tolyl)ethan-1-imine] |  | 15.8 ± 3.1
8 | Cc1ccc(/C(CSc2nc3ccccc3o2)=N\c2nnc(-c3ccc(N(C)C)cc3)o2)cc1 [Compound 8, (E)-4-(5-((2-(Benzo[d]oxazol-2-ylthio)-1-(p-tolyl)ethylidene)amino)-1,3,4-oxadiazol-2-yl)-N,N-dimethylaniline] |  | 24.6 ± 3.8
9 | Cc1ccc(/C(CSc2nc3ccccc3o2)=N\c2nnc(-c3ccc(Cl)cc3Cl)o2)cc1 [Compound 9, (E)-2-(Benzo[d]oxazol-2-ylthio)-N-(5-(2,4-dichlorophenyl)-1,3,4-oxadiazol-2-yl)-1-(p-tolyl)ethan-1-imine] |  | 14.8 ± 2.7
10 | Cc1ccc(/C(CSc2nc3ccccc3o2)=N\c2nnc(-c3ccc([N+](=O)[O-])cc3)o2)cc1 [Compound 10, (E)-2-(Benzo[d]oxazol-2-ylthio)-N-(5-(4-nitrophenyl)-1,3,4-oxadiazol-2-yl)-1-(p-tolyl)ethan-1-imine] |  | 18.5 ± 1.9
11 | Cc1ccc(/C(CSc2nc3ccccc3o2)=N\c2nnc(-c3ccc(Cl)cc3)o2)cc1 [Compound 11, (E)-2-(Benzo[d]oxazol-2-ylthio)-N-(5-(4-chlorophenyl)-1,3,4-oxadiazol-2-yl)-1-(p-tolyl)ethan-1-imine] |  | 12.3 ± 1.5
12 | Cc1ccc(/C(CSc2nc3ccccc3o2)=N\c2nnc(-c3ccc(C=O)cc3)o2)cc1 [Compound 12, (E)-4-(5-((2-(Benzo[d]oxazol-2-ylthio)-1-(p-tolyl)ethylidene)amino)-1,3,4-oxadiazol-2-yl)benzaldehyde] |  | 28.7 ± 3.9
13 | Cc1cccc(/C(CSc2nc3ccccc3o2)=N\c2nnc(-c3ccc(OCc4ccccc4)cc3)o2)c1 [Compound 13, (E)-2-(Benzo[d]oxazol-2-ylthio)-N-(5-(4-(benzyloxy)phenyl)-1,3,4-oxadiazol-2-yl)-1-(m-tolyl)ethan-1-imine] |  | 31.5 ± 4.9
14 | Cc1ccc(/C(CSc2nc3ccccc3o2)=N\c2nnc(-c3ccc4ccccc4c3)o2)cc1 [Compound 14, (E)-2-(Benzo[d]oxazol-2-ylthio)-N-(5-(naphthalen-2-yl)-1,3,4-oxadiazol-2-yl)-1-(p-tolyl)ethan-1-imine] |  | 42.6 ± 6.1
15 | Clc1ccc(/C(CSc2nc3ccccc3o2)=N\c2nnc(-c3ccc(Cl)c(Cl)c3)o2)cc1Cl [Compound 15, (E)-2-(Benzo[d]oxazol-2-ylthio)-1-(3,4-dichlorophenyl)-N-(5-(3,4-dichlorophenyl)-1,3,4-oxadiazol-2-yl)ethan-1-imine] |  | 7.2 ± 2.3
16 | O=[N+]([O-])c1cccc(-c2nnc(/N=C(/CSc3nc4ccccc4o3)c3ccc(Cl)c(Cl)c3)o2)c1 [Compound 16, (E)-2-(Benzo[d]oxazol-2-ylthio)-1-(3,4-dichlorophenyl)-N-(5-(3-nitrophenyl)-1,3,4-oxadiazol-2-yl)ethan-1-imine] |  | 7.6 ± 2.1
17 | Clc1ccc(-c2nnc(/N=C(/CSc3nc4ccccc4o3)c3ccc(Cl)c(Cl)c3)o2)cc1 [Compound 17, (E)-2-(Benzo[d]oxazol-2-ylthio)-N-(5-(4-chlorophenyl)-1,3,4-oxadiazol-2-yl)-1-(3,4-dichlorophenyl)ethan-1-imine] |  | 13.3 ± 3.2
18 | CN(C)c1ccc(-c2nnc(/N=C(/CSc3nc4ccccc4o3)c3ccc(Cl)c(Cl)c3)o2)cc1 [Compound 18, (E)-4-(5-((2-(Benzo[d]oxazol-2-ylthio)-1-(3,4-dichlorophenyl)ethylidene)amino)-1,3,4-oxadiazol-2-yl)-N,N-dimethylaniline] |  | 18.3 ± 3.2
19 | O=[N+]([O-])c1ccc(-c2nnc(/N=C(/CSc3nc4ccccc4o3)c3ccc(Cl)c(Cl)c3)o2)cc1 [Compound 19, (E)-2-(Benzo[d]oxazol-2-ylthio)-1-(3,4-dichlorophenyl)-N-(5-(4-nitrophenyl)-1,3,4-oxadiazol-2-yl)ethan-1-imine] |  | 9.8 ± 2.3
